Measured values: patent US6642250B2, “1,8-naphthyridin-2(1H)-one derivatives” (Grelan Pharmaceutical Co., Ltd., priority 1999, dated 2003)

Tests used:
PDE I = assay: PDE inhibition, type I PDE (cGMP substrate, calmodulin/CaCl2 added); type: biochemical; details: PDE I from porcine hearts, cGMP 1 μM; read-out: Inhibition of PDE Isoenzymes (IC50) I
Description: (§1) The assays for PDE activity were conducted according to Nicholson et al. method (Br. J. Pharmacol., 97, 889 (1989)).
(§2) Among PDE isozymes, type I, II, III and IV PDEs as used herein were separated from porcine hearts by using an anion exchange chromatography. Type V PDE was also separated from porcine aortae with an anion exchange chromatography and used herein.
(§3) Each PDE isozyme was admixed with ethylene glycol (EG) to adjust the final EG concentration to 30%, then stored at −20° C. and diluted when used. The enzymatic activity for PDE I and V was measured using cGMP as a substrate while that for POE II, III and IV was measured using cAMP.
(§4) [^3H]-cAMP (962 GBq/mmol; Amersham, 25 μl (100,000 cpm)) or [^3H]-cGMP (962 GBq/mmol; Amersham, 25 μl (100,000 cpm)) was added together with each PDE isozyme (25 μl) to an incubation buffer solution with the composition given below to adjust the total volume to 250 μl. Each test compound was dissolved in DMSO to adjust the final concentration to 1% (2.5 μl/tube).
(§5) Incubation buffer solution (pH7.5):
(§6) Tris-HCl (50 mM), magnesium chloride (6 mM), dithiothreitol
(§7) (2.5 mM), 5-nucleotidase (4 μg/ml), bovine serum albumin
(§8) (0.23 mg/ml), and cAMP (1 μM) [or cGMP (1 μM)]
(§9) A mixture of the aforementioned test compound solution and the buffer solution was incubated at 30° C. for 20 minutes. The reaction was quenched by admixing with 1 ml of anion exchange resin slurry (AG1-X8, 200-400 meshes, chloride form; Bio-Rad) to absorb unreacted substrates.
(§10) After the reaction stopped, the mixture was centrifuged at 200×g for 10 minutes, and the resulting supernatant was collected with vials in 250 μl aliquots. To each vial was added 5 ml of ACS-II (scintillator, Amersham). The radioactivity was measured with a liquid scintillator counter for [^3H]-adenosine or [^3H]-guanosine and set as the PDE activity. The measurements were conducted under conditions wherein the enzymatic activity was elevated by adding calmodulin (20 U/ml; Amersham) and calcium chloride (0.1 mM) for PDE-I and cGMP (1 μM) for PDE II, respectively.
(§11) The % inhibition was calculated for test compounds, and IC50 (the concentration of each test compound required for 50% inhibition) was obtained by Probit method. The aforementioned rolipram ((−)-isomer, optical purity: 91% e.e.) known as the PDE IV inhibitor in the prior art was used for the reference compound in this assay.

PDE IV = system: T1, PDE IV; assay: PDE inhibition, type IV PDE (cAMP substrate); type: biochemical; details: PDE IV from porcine hearts, cAMP 1 μM; read-out: Inhibition of PDE Isoenzymes (IC50) IV
T1 construct: other: PDE IV from porcine hearts, cAMP 1 μM
Description: as §1, §2, §3, §4, §5, §6, §7, §8, §9, §10, §11
Further, for a comparison with compounds as disclosed in JP, A, 63-159382 (1988), the PDE-inhibiting activity was also measured for Compounds A and D in Table 1 of JP, A, 63-159382 (1988).

[1] = system: actively sensitized guinea pigs; assay: Inhibition of antigen-induced immediate asthmatic response (airway resistance, Konzett-Rossler method); type: in vivo, guinea pig; details: for inhibition in vivo at 3 mg/kg: Cavia porcellus, po, orally, 60 minutes prior to antigen-challenge, average of 3 animals, read-out: % Reduction of Increase in Airway Resistance; for % reduction of increase in airway resistance: oral administration at a dose of 1 mg/kg
Description: (1) Active Sensitization of Guinea Pigs
Male Hartley outbred guinea pigs were sensitized by administering intraperitoneally physiological saline (0.5 ml) containing ovalbumin (1 mg, antigen) and 5×10^9 inactivated Bordetella pertussis dead cells (adjuvant).
Eleven to thirteen days after the first sensitization, 0.05 ml of an ovalbumin solution (1 mg/ml) (ovalbumin is dissolved in physiological saline) was administered to the lateroabdominal region of each guinea pig intracutaneously. An establishment of sensitization was checked relying on cutaneous reaction. Only guinea pigs wherein significant reddening responses occurred 5 to 10 minutes later were employed in the next measurement test for airway resistance.
(2) Measurement for Airway Resistance in Actively Sensitized-Guinea Pigs
The guinea pigs (3 animals per group) actively sensitized in the above step (1) were employed to measure for their airway pressure according to Konzett-Rossler method (Arch. Exp. Path. Pharmakol., 195, 71 (1940)).
Thirteen days after the final sensitization, guinea pigs fasted overnight, and were on the next day anesthetized with a pentobarbital solution (60 mg/1.2 ml/kg, dissolved in physiological saline, intraperitoneal administration). After the guinea pigs were fixed in a supine position, their trachea was incised followed by insertion with one port of a 4-port cannula. Among the remaining 3 ports, 2 ports were connected to an artificial respirator (Model 683, Harvard). The animals were ventilated with 10 ml/kg of air per ventilation at a rate of 60 beats/min via the artificial respirator from the cannula. One port remainder was connected to a respiratory amplifier (AR-601G, Nihon Kohden, Japan) via an airflow resistance tube (TV-241T, Nihon Kohden, Japan) and a differential pressure transducer (TP-602T, Nihon Kohden, Japan) connected with a control box (RY-111S, Nihon Kohden, Japan). From a catheter inserted into a left carotid artery, blood pressures were monitored with a blood pressure measurement unit (AP641G, NEC Corp., Japan) via a blood pressure transducer (TP-300T, Nihon Kohden, Japan), and heart rates were recorded on a thermal recorder (WT-685G, Nihon Kohden, Japan), relying on blood pressure pulse waves after being led to a cardiograph unit (AT601G, Nihon Kohden, Japan).
After airway pressure became stable, an ovalbumin solution (1 mg/ml, dissolved in physiological saline) was administered at a dose of 1 ml/kg via a tube with which the right jugular vein of guinea pigs was cannulated. Each area under airway pressure-time curve (AUC) was obtained by measuring amplitudes of the airway pressure prior to the antigen-challenge, 1, 2, 3, 4, 5, 10, 15 and 20 minutes post-challenge, and each percent increase (%) in airway resistance was further calculated according to the following equation: [formula]
[…] Control groups received only 0.5% CMC—Na solution in an equivalent amount. The pentobarbital-anesthetization and tracheal incision were conducted 30 minutes prior to the antigen-challenge.
Each percent reduction of increase in airway resistance (each test compound-administered group versus control group) was calculated according to the equation given below. The results are shown in Table 2 wherein each value is an average of 3 animals. Rolipram as described in Assay Example 1 was used for the reference compound in this assay. [formula]
For a comparison with compounds as disclosed in JP, A, 63-159382 (1988), the percent reduction of increase in airway resistance was obtained for the compounds of the present invention (oral administration at a dose of 1 mg/kg), the compounds in Table 1 of JP, A, 63-159382 (1988) (oral administration at a dose of 1 mg/kg), and rolipram (reference compound; oral administration at a dose of 3 mg/kg), respectively, in the same assay manner as in the aforementioned Assay Example 2.

PDE V = molecular target: T2, PDE V (Sus scrofa, UniProt A0A287B475); assay: PDE inhibition, type V PDE (cGMP substrate); type: biochemical; details: PDE V from porcine aortae, cGMP 1 μM; read-out: Inhibition of PDE Isoenzymes (IC50) V
T2 construct: Type V PDE was also separated from porcine aortae with an anion exchange chromatography and used herein
Description: as §1, §2, §3, §4, §5, §6, §7, §8, §9, §10, §11

SMILES	IC50 (PDE I)	IC50 (PDE IV)	IC50 (PDE V)	inhibition in vivo at 3 mg/kg [1]	% reduction of increase in airway resistance [1]
COc1ccc(C2CNC(=O)C2)cc1OC1CCCC1 (single isomer, unassigned) [Rolipram, rolipram, reference compound]	> 100 µM	0.78 to 3.2 µM		65%	
O=c1c(Cc2cccnc2)cc2cccnc2n1-c1cccc([N+](=O)[O-])c1 [Example No. 2, 1-(3-Nitrophenyl)-3-(pyridin-3-ylmethyl)-1,8-naphthyridin-2(1H)-one]	> 100 µM	0.11 µM	16 µM	64%	
O=c1c(CCCc2ccncc2)cc2cccnc2n1-c1cccc([N+](=O)[O-])c1 [Example No. 8, 1-(3-Nitrophenyl)-3-[3-(pyridin-4-yl)propyl]-1,8-naphthyridin-2(1H)-one]	> 100 µM	0.44 µM	> 100 µM	88%	88%
O=c1c(CCCCc2cccnc2)cc2cccnc2n1-c1cccc([N+](=O)[O-])c1 [Example No. 14, 1-(3-Nitrophenyl)-3-[4-(pyridin-3-yl)butyl]-1,8-naphthyridin-2(1H)-one]	83 µM	1.5 µM	5.1 µM	92%	
O=c1c(CCCCCc2cccnc2)cc2cccnc2n1-c1cccc([N+](=O)[O-])c1 [Example No. 16, 1-(3-Nitrophenyl)-3-[5-(pyridin-3-yl)pentyl]-1,8-naphthyridin-2(1H)-one]	98 µM	1.9 µM	7.4 µM	96%	
O=c1c(CCCc2ccncc2)cc2cccnc2n1-c1cccnc1 [Example No. 23, 1-(Pyridin-3-yl)-3-[3-(pyridin-4-yl)propyl]-1,8-naphthyridin-2(1H)-one]	> 100 µM	1.2 µM	> 100 µM	90%	

Continued, in another order:

IC50 (PDE I)	IC50 (PDE IV)	IC50 (PDE V)	SMILES	inhibition in vivo at 3 mg/kg [1]	% reduction of increase in airway resistance [1]
22 µM	0.06 µM	13 µM	O=c1c(CCc2cccnc2)cc2cccnc2n1-c1cccc([N+](=O)[O-])c1 [Example No. 5, 1-(3-Nitrophenyl)-3-[2-(pyridin-3-yl)ethyl]-1,8-naphthyridin-2(1H)-one]	90%	86%
> 100 µM	0.16 µM	15 µM	O=c1c(CCc2ccncc2)cc2cccnc2n1-c1cccc([N+](=O)[O-])c1 [Example No. 6, 1-(3-Nitrophenyl)-3-[2-(pyridin-4-yl)ethyl]-1,8-naphthyridin-2(1H)-one]	87%	
> 100 µM	1.3 µM	4.7 µM	O=c1c(CCCc2cccnc2)cc2cccnc2n1-c1cccc([N+](=O)[O-])c1 [Example No. 7, 1-(3-Nitrophenyl)-3-[3-(pyridin-3-yl)propyl]-1,8-naphthyridin-2(1H)-one]	95%	
> 100 µM	1.5 µM	13 µM	CSc1cccc(-n2c(=O)c(CCCc3ccncc3)cc3cccnc32)c1 [Example No. 10, 1-(3-Methylthiophenyl)-3-[3-(pyridin-4-yl)propyl]-1,8-naphthyridin-2(1H)-one]	82%	
